Laboratory results taken from paper PMC8963254, “Effects of Lysine N-ζ-Methylation in Ultrashort Tetrabasic Lipopeptides (UTBLPs) on the Potentiation of Rifampicin, Novobiocin, and Niclosamide in Gram-Negative Bacteria” (Antibiotics, 2022).
In brackets after ≈: the same amount, converted by molar mass. Several values for one entry are separate records, joined by “and”; a condition that tells them apart may be missing. Equal entries are not always repeated. Where two headings read alike, the source gives them in different places.

Key:
[1] = test system: P. aeruginosa PA259-96196; test: microbe, parasite or virus in culture; type: cell-based, Pseudomonas aeruginosa; conditions: Pseudomonas aeruginosa, PA25996196, 18 h; P. aeruginosa 259-96196; read-out: MICs of various antibiotics
Protocol: (§1) The in vitro antibacterial activity of the UTBLPs was assessed against wild-type and clinically isolated bacterial strains. To obtain the MIC of the compounds, the microbroth dilution susceptibility assay was performed according to the Clinical and Laboratory Standards Institute (CLSI, Wayne, PA, USA) guidelines and as previously described. Briefly, the compounds at varying concentrations were incubated with bacterial inoculum (5 × 10^5 CFU/mL final concentration) at 37 °C for 18 h. Growth in the form of turbidity was confirmed using an EMax Plus microplate reader (Molecular Devices, San Jose, CA, USA) at 590 nm.

[2] = test system: P. aeruginosa PA262-101856; test: microbe, parasite or virus in culture; type: cell-based, Pseudomonas aeruginosa; conditions: Pseudomonas aeruginosa, PA262101856, 18 h; P. aeruginosa 262-101856; read-out: MICs of various antibiotics
Protocol: as §1

[3] = test system: E. coli 94393; test: microbe, parasite or virus in culture; type: cell-based, Escherichia coli; conditions: Escherichia coli, 18 h; E. coli 94393 (mcr-1 +); read-out: MICs of various antibiotics
Protocol: as §1

[4] = test system: E. coli 94474; test: microbe, parasite or virus in culture; type: cell-based, Escherichia coli; conditions: Escherichia coli, 18 h; E. coli 94474 (mcr-1 +); read-out: MICs of various antibiotics
Protocol: as §1

[5] = test system: E. cloacae 118564; test: microbe, parasite or virus in culture; type: cell-based, Enterobacter cloacae; conditions: Enterobacter cloacae, 18 h; E. cloacae 118564; read-out: MICs of various antibiotics
Protocol: as §1

[6] = test system: K. pneumoniae 113250; test: microbe, parasite or virus in culture; type: cell-based, Klebsiella pneumoniae; conditions: Klebsiella pneumoniae, 18 h; K. pneumoniae 113250; read-out: MICs of various antibiotics
Protocol: as §1

[7] = test system: A. baumannii AB027; test: microbe, parasite or virus in culture; type: cell-based, Acinetobacter baumannii; conditions: Acinetobacter baumannii, 18 h; A. baumannii AB027; read-out: MICs of various antibiotics
Protocol: as §1

[8] = test system: A. baumannii AB92247; test: microbe, parasite or virus in culture; type: cell-based, Acinetobacter baumannii; conditions: Acinetobacter baumannii, AB92247, 18 h; A. baumannii 92247; read-out: MICs of various antibiotics
Protocol: as §1

[9] = test system: P. aeruginosa PAO1; type: cell-based, Pseudomonas aeruginosa
Protocol: (§2) The synergy of the UTBLPs with various antibiotics was assessed using checkerboard assay as previously described. Briefly, the combination of antibiotic and OMP at varying concentrations were incubated with bacterial inoculum (5 × 10^5 CFU/mL final concentration) at 37 °C for 18 h. Growth in the form of turbidity was confirmed using an EMax Plus microplate reader (Molecular Devices, Union City, CA, USA) at 590 nm. Fractional inhibitory concentration index (FICI) was used to evaluate the interaction between the antibiotic and the OMP. FICI is the sum of the FIC of the antibiotic and the FIC of the OMP. The FIC value is calculated by dividing the MIC of the agents in combination by the MIC of the agent alone. FICI ≤ 0.5 is synergistic, 0.5 < x ≤ 4 is additive, and >4 is antagonistic.

[10] = test system: A. baumannii ATCC 17978; type: cell-based, Acinetobacter baumannii
Protocol: as §2

[11] = test system: MRSA ATCC 33592; type: cell-based, Staphylococcus aureus; conditions: chloramphenicol alone
Protocol: as §2

[12] = test system: S. aureus ATCC 29213; type: cell-based, Staphylococcus aureus; conditions: chloramphenicol alone
Protocol: as §2

[13] = test system: MRSE 61589; type: cell-based, Staphylococcus epidermidis; conditions: chloramphenicol alone
Protocol: as §2

[14] = test system: MSSE 81388; type: cell-based, Staphylococcus epidermidis; conditions: chloramphenicol alone
Protocol: as §2

[15] = test system: E. faecalis ATCC 29212; type: cell-based, Enterococcus faecalis; conditions: chloramphenicol alone
Protocol: as §2

[16] = test system: E. faecium ATCC 27270; type: cell-based, Enterococcus faecium; conditions: chloramphenicol alone
Protocol: as §2

[17] = test system: P. aeruginosa PA259-96196; type: cell-based, Pseudomonas aeruginosa
Protocol: as §2

[18] = test system: P. aeruginosa PA262-101856; type: cell-based, Pseudomonas aeruginosa
Protocol: as §2

[19] = test system: A. baumannii 92247; type: cell-based, Acinetobacter baumannii
Protocol: as §2

[20] = test system: A. baumannii AB027; type: cell-based, Acinetobacter baumannii
Protocol: as §2

[21] = test system: E. coli 94393; type: cell-based, Escherichia coli
Protocol: as §2

[22] = test system: E. coli 94474; type: cell-based, Escherichia coli
Protocol: as §2

[23] = test system: E. coli ATCC 25922; type: cell-based, Escherichia coli
Protocol: as §2

[24] = test system: E. cloacae 118564; type: cell-based, Enterobacter cloacae
Protocol: as §2

[25] = test system: K. pneumoniae 113250; type: cell-based, Klebsiella pneumoniae; conditions: rifampicin alone
Protocol: as §2

MIC [1] [µg/mL]	MIC [2] [µg/mL]	MIC [3] [µg/mL]	MIC [4] [µg/mL]	MIC [5] [µg/mL]	MIC [6] [µg/mL]	MIC [7] [µg/mL]	Compound	further results
512 (≈ 937 µM)	16 (≈ 29.3 µM)	≤ 0.25	0.5 (≈ 0.915 µM)	0.5 (≈ 0.915 µM)	0.5 (≈ 0.915 µM)	–	CC(C)(O/N=C(\C(=O)N[C@@H]1C(=O)N2C(C(=O)[O-])=C(C[n+]3ccccc3)CS[C@H]12)c1csc(N)n1)C(=O)O [CAZ, ceftazidime]	–
> 32	> 32	≤ 0.5	16 (≈ 33.5 µM)	1 (≈ 2.09 µM)	≤ 0.5	32 (≈ 67 µM)	CNC(C)C1CCC(N)C(OC2C(N)CC(N)C(OC3OCC(C)(O)C(NC)C3O)C2O)O1 (stereo not shown) [GEN, gentamicin]	–
32 (≈ 54.6 µM)	32 (≈ 54.6 µM)	0.25 (≈ 0.427 µM)	1 (≈ 1.71 µM)	–	–	4 (≈ 6.83 µM)	CN(C)c1cc(NC(=O)CNC(C)(C)C)c(O)c2c1C[C@H]1C[C@H]3[C@H](N(C)C)C(O)=C(C(N)=O)C(=O)[C@@]3(O)C(O)=C1C2=O [TGC, tigecycline]	MIC [8]: 0.25 µg/mL (≈ 0.427 µM)
1020 (≈ 3170 µM)	2050 (≈ 6340 µM)	4 (≈ 12.4 µM)	4 (≈ 12.4 µM)	–	4 (≈ 12.4 µM)	128 (≈ 396 µM)	O=C(N[C@H](CO)[C@H](O)c1ccc([N+](=O)[O-])cc1)C(Cl)Cl [Chloramphenicol, chloramphenicol, reference compound]	MICantibiotic ([9]; chloramphenicol alone): 32 µg/mL and 16 µg/mL; MICantibiotic ([10]; chloramphenicol alone): 128 µg/mL and 64 µg/mL; MICchloramphenicol [11]: 64 µg/mL; MICchloramphenicol [12]: 8 µg/mL and 16 µg/mL; MICchloramphenicol [13]: 8 µg/mL and 16 µg/mL; MICchloramphenicol [14]: 4 µg/mL and 8 µg/mL; MICchloramphenicol [15]: 4 µg/mL and 8 µg/mL; MICchloramphenicol [16]: 8 µg/mL and 4 µg/mL
–	–	–	–	–	–	–	CO[C@@H]1[C@@H](OC(N)=O)[C@@H](O)[C@H](Oc2ccc3c(O)c(NC(=O)c4ccc(O)c(CC=C(C)C)c4)c(=O)oc3c2C)OC1(C)C [Novobiocin, novobiocin]	MICantibiotic ([17]; novobiocin alone): 2048 µg/mL and 1024 µg/mL; MICantibiotic ([18]; novobiocin alone): 1024 µg/mL and 2048 µg/mL and > 1024 µg/mL; MICantibiotic ([9]; novobiocin alone): 512 µg/mL and 1024 µg/mL; MICantibiotic ([19]; novobiocin alone): 2 µg/mL and 4 µg/mL; MICantibiotic ([20]; novobiocin alone): 8 µg/mL and 16 µg/mL; MICantibiotic ([21]; novobiocin alone): 128 µg/mL and 64 µg/mL; MICantibiotic ([22]; novobiocin alone): 256 µg/mL and 128 µg/mL; MICantibiotic ([23]; novobiocin alone): 32 µg/mL and 64 µg/mL; MICantibiotic ([24]; novobiocin alone): 256 µg/mL
> 16	> 16	1 (≈ 2.49 µM)	16 (≈ 39.9 µM)	0.12 (≈ 0.299 µM)	≤ 0.06	8 (≈ 19.9 µM)	COc1c(N2C[C@@H]3CCCN[C@@H]3C2)c(F)cc2c(=O)c(C(=O)O)cn(C3CC3)c12 [MOX, moxifloxacin]	–
> 32	> 32	≤ 0.03	≤ 0.03	–	≤ 0.03	–	C[C@@H](O)[C@H]1C(=O)N2C(C(=O)O)=C(S[C@@H]3CN[C@H](C(=O)Nc4cccc(C(=O)O)c4)C3)[C@H](C)[C@H]12 [ETP, ertapenem]	–
–	–	–	–	–	–	–	O=C(Nc1ccc([N+](=O)[O-])cc1Cl)c1cc(Cl)ccc1O [Niclosamide, niclosamide]	MICantibiotic ([9]; niclosamide alone): 1024 µg/mL; MICantibiotic ([10]; niclosamide alone): 1024 µg/mL and > 1024 µg/mL and 512 µg/mL; MICantibiotic ([23]; niclosamide alone): > 128 µg/mL and > 256 µg/mL
256 (≈ 548 µM)	1020 (≈ 2190 µM)	≤ 0.5	32 (≈ 68.4 µM)	1 (≈ 2.14 µM)	≤ 0.5	–	NC[C@H]1O[C@H](O[C@H]2[C@H](O)[C@@H](O[C@H]3O[C@H](CO)[C@@H](O)[C@H](N)[C@H]3O)[C@H](N)C[C@@H]2N)[C@H](N)C[C@@H]1O [TOB, tobramycin]	–
> 1020	16 (≈ 38 µM)	–	–	–	–	–	C[C@@H](O)[C@H]1C(=O)N2C(C(=O)O)=C(S[C@@H]3CN[C@H](CNS(N)(=O)=O)C3)[C@H](C)[C@H]12 [DOR, doripenem]	–
32 (≈ 69.9 µM)	64 (≈ 140 µM)	2 (≈ 4.37 µM)	64 (≈ 140 µM)	–	2 (≈ 4.37 µM)	0.25 (≈ 0.546 µM)	CN(C)c1ccc(O)c2c1C[C@H]1C[C@H]3[C@H](N(C)C)C(O)=C(C(N)=O)C(=O)[C@@]3(O)C(O)=C1C2=O [MIN, minocycline]	MIC [8]: 0.125 µg/mL (≈ 0.273 µM)
32 (≈ 72 µM)	1020 (≈ 2300 µM)	4 (≈ 9 µM)	> 32	4 (≈ 9 µM)	2 (≈ 4.5 µM)	–	C[C@H]1c2cccc(O)c2C(=O)C2=C(O)[C@]3(O)C(=O)C(C(N)=O)=C(O)[C@@H](N(C)C)[C@@H]3[C@@H](O)[C@@H]21 [DOX, doxycycline]	–
–	–	–	–	–	–	–	CO[C@H]1/C=C/O[C@@]2(C)Oc3c(C)c(O)c4c(O)c(c(/C=N/N5CCN(C)CC5)c(O)c4c3C2=O)NC(=O)/C(C)=C\C=C\[C@H](C)[C@H](O)[C@@H](C)[C@@H](O)[C@@H](C)[C@H](OC(C)=O)[C@@H]1C [Rifampicin, rifampicin]	MICantibiotic ([17]; rifampicin alone): 16 µg/mL; MICantibiotic ([18]; rifampicin alone): 512 µg/mL and 1024 µg/mL; MICantibiotic ([9]; rifampicin alone): 16 µg/mL and 8 µg/mL; MICantibiotic ([19]; rifampicin alone): 1 µg/mL and 2 µg/mL; MICantibiotic ([20]; rifampicin alone): 1 µg/mL; MICantibiotic ([10]; rifampicin alone): 1 µg/mL and 2 µg/mL; MICantibiotic ([21]; rifampicin alone): 4 µg/mL; MICantibiotic ([22]; rifampicin alone): 4 µg/mL and 8 µg/mL; MICantibiotic ([23]; rifampicin alone): 4 µg/mL and 2 µg/mL; MICantibiotic ([24]; rifampicin alone): 8 µg/mL; MICantibiotic [25]: 16 µg/mL and 8 µg/mL
8 (≈ 14.3 µM)	8 (≈ 14.3 µM)	0.5 (≈ 0.895 µM)	1 (≈ 1.79 µM)	–	1 (≈ 1.79 µM)	0.5 (≈ 0.895 µM)	CN(C)[C@@H]1C(O)=C(C(N)=O)C(=O)[C@@]2(O)C(O)=C3C(=O)c4c(O)c(NC(=O)CN5CCCC5)cc(F)c4C[C@H]3C[C@@H]12 [ERC, eravacycline]	–
> 64	64 (≈ 115 µM)	–	–	–	–	–	CO/N=C(\C(=O)N[C@@H]1C(=O)N2C(C(=O)O)=C(CSc3nc(=O)c(=O)[nH]n3C)CS[C@H]12)c1csc(N)n1 [CTR, ceftriaxone]	–
32 (≈ 73.5 µM)	32 (≈ 73.5 µM)	≤ 0.12	≤ 0.12	≤ 0.12	≤ 0.12	–	C[C@H]1[C@H](NC(=O)/C(=N\OC(C)(C)C(=O)O)c2csc(N)n2)C(=O)N1S(=O)(=O)O [AZT, aztreonam]	–
2050 (≈ 4500 µM)	128 (≈ 281 µM)	–	–	–	–	> 256	CO/N=C(\C(=O)N[C@@H]1C(=O)N2C(C(=O)O)=C(COC(C)=O)CS[C@H]12)c1csc(N)n1 [CTX, cefotaxime]	–
32 (≈ 107 µM)	32 (≈ 107 µM)	0.25 (≈ 0.835 µM)	0.25 (≈ 0.835 µM)	–	0.25 (≈ 0.835 µM)	32 (≈ 107 µM)	C[C@@H](O)[C@H]1C(=O)N2C(C(=O)O)=C(SCCN=CN)C[C@H]12 [IMI, imipenem]	–
64 (≈ 115 µM)	64 (≈ 115 µM)	4 (≈ 7.19 µM)	16 (≈ 28.7 µM)	–	2 (≈ 3.59 µM)	1 (≈ 1.8 µM)	CN(C)c1cc(CNCC(C)(C)C)c(O)c2c1C[C@H]1C[C@H]3[C@H](N(C)C)C(O)=C(C(N)=O)C(=O)[C@@]3(O)C(O)=C1C2=O [OMC, omadacycline]	–
256 (≈ 708 µM)	64 (≈ 177 µM)	1 (≈ 2.77 µM)	32 (≈ 88.6 µM)	–	0.125 (≈ 0.346 µM)	8 (≈ 22.1 µM)	C[C@H]1COc2c(N3CCN(C)CC3)c(F)cc3c(=O)c(C(=O)O)cn1c23 [LEV, levofloxacin]	–
